Results: patent US8106050B2, “Derivatives of pyrrolo-pyrazines having a kinase inhibitory activity and their biological applications” (Centre National de la Recherche Scientifique (C.N.R.S.), priority 2002, dated 2012)

What was measured:
Casein kinase 2 = test: Kinase selectivity panel; assay type: biochemical; conditions: 15 μM ATP
Casein kinase 1 = test: Kinase selectivity panel; assay type: biochemical; conditions: 15 μM ATP
MAPKK = test: Kinase selectivity panel; assay type: biochemical; conditions: 15 μM ATP
c-Jun N-terminal kinase = test: Kinase selectivity panel; assay type: biochemical; conditions: 15 μM ATP
CDK4/cyclin D1 = target: T1, CDK4/cyclin D1 (Homo sapiens, UniProt P11802); test: Kinase selectivity panel; assay type: biochemical; conditions: 15 μM ATP
T1 construct: made in house

NT2 cells [1] = test: Exponential cell growth of NT2 cells; assay type: cell-based, human; conditions: figure legend FIGS. 4A to 4E
Procedure: (§1) Clonal human NT2 teraterocarcinoma cells were obtained from Stratagene (La Jolla, Calif.) and grown in Dulbecco's Modified Eagle Medium: Nutrient Mixture F-12 with 2 mM L-Glutamine (BIO […]) supplemented with 5% FCS and containing penicillin (20 UI/ml) and streptomycin (20 μg/ml) at 37° C., in a humidified atmosphere containing 5% CO2 in air.
(§2) Exponentially growing cells were incubated for 24 h with aloisine A (stock solution dissolved in dimethylsulfoxide). Nocodazole treatment of cells was performed at a concentration of 0.04 μg nocodazole/ml of medium for 24 h. Following the nocodazole treatment, cells were washed twice with fresh medium and cultured with or without aloisine A for 24 h. To perform serum deprivation, cells were maintained in serum-free medium for 40 h. Following serum deprivation, cells were washed twice and cultured in fresh serum-containing medium with or without aloisine A for 40 h.
The formazan products were dissolved in DMSO and quantified by measurement of the absorbance at 562 nm.

GSK-3α/β = test: GSK-3 kinase assay (GS-1 peptide, 15 μM ATP); assay type: biochemical, porcine; conditions: text summary of selectivity; read-out: IC50 GSK-3α/β
Procedure: (§3) Blank values were subtracted and activities calculated as pmoles of phosphate incorporated for a 10 min. incubation. […] Controls were performed with appropriate dilutions of dimethylsulfoxide. In a few cases phosphorylation of the substrate was assessed by autoradiography after SDS-PAGE.
GSK-3α/β was either purified from porcine brain or expressed in and purified from insect Sf9 cells. […] ATP (3,000 Ci/mmol; 1 mCi/ml) in a final volume of 30 μl. After 30 min. incubation at 30° C., 25 μl aliquots of supernatant were spotted onto 2.5×3 cm pieces of Whatman P81 phosphocellulose paper, and, 20 sec. later, the filters were washed five times (for at least 5 min. each time) in a solution of 10 ml phosphoric acid/liter of water. The wet filters were counted in the presence of 1 ml ACS (Amersham) scintillation fluid.
(§4) Kinases were assayed as above described in the presence of increasing concentrations of aloisines.

erk2 = target: T2, erk2 (Homo sapiens, UniProt P28482); test: Kinase selectivity panel; assay type: biochemical; conditions: 15 μM ATP
T2 construct: made in house

erk1 = target: T3, erk1 (Homo sapiens, UniProt P27361); test: Kinase selectivity panel; assay type: biochemical; conditions: 15 μM ATP
T3 construct: made in house

CDK1/cyclin B = CDK1/cyclin B kinase assay (histone H1, 15 μM ATP); assay type: biochemical, starfish (Marthasterias glacialis); conditions: ATP 0.1 to […], histone H1 0.7 mg/ml, double reciprocal plots
Procedure: as §3
CDK1/cyclin B was extracted in homogenisation buffer from M phase starfish (Marthasterias glacialis) oocytes and purified by affinity chromatography on p9^CKShs1-sepharose beads, from which it was eluted by free p9^CKShs1. […] ATP (3,000 Ci/mmol; 1 mCi/ml) in a final volume of 30 μl. After 10 min. incubation at 30° C., 25 μl aliquots of supernatant were spotted onto P81 phosphocellulose papers and treated as described above.
as §4

[2] = target: Insulin receptor tyrosine kinase (Homo sapiens, UniProt P06213); conditions: read-out: IC50 Insulin receptor tyrosine kinase; 15 μM ATP
protein kinase C η = target: T4, protein kinase C η (Homo sapiens, UniProt P24723); test: Kinase selectivity panel; assay type: biochemical; conditions: 15 μM ATP
T4 construct: made in house

NT2 cells [3] = test: Cell cycle analysis by flow cytometry; assay type: cell-based, human
Procedure: as §1, §2
Cells were trypsinised, collected by centrifugation and fixed in cold 70% ethanol for at least 4 h. Fixed cells were washed in PBS, incubated with 10 μg RNAse A/ml and stained with 25 μg propidium iodide/ml for 1 h at 37° C. The stained cells were then analysed for cell cycle distribution on a FACSort flow cytometer (Becton Dickinson). Cell cycle analyses were performed multiCYCLE (18).
The effect of aloisine A on the cell cycle distribution was investigated for NT2 cells by flow cytometry. Unsynchronised cells (FIG. 4E) were exposed to 20 μM aloisine A for 40 h (FIG. 4F).
The effects of aloisine A on NT2 cells synchronized either in G0/G1 by serum deprivation or in G2/M by nocodazole treatment was also investigated. The results are given on FIG. 4: the cell cycle phase distribution was analysed by flow cytometry following propidium iodide staining. (A, B, C). NT2 cells were synchronized by serum deprivation for […] (A), then cultured for 40 h in fresh medium without (B) or with 20 μM aloisine A (C). (D, E, F). NT2 cells were synchronized by nocodazole treatment ([…]) for 24 h (D), then cultured for 40 h in fresh medium without (E) or with 20 μM aloisine A (F).

T1 sequence (P11802 whole entry, species assumed): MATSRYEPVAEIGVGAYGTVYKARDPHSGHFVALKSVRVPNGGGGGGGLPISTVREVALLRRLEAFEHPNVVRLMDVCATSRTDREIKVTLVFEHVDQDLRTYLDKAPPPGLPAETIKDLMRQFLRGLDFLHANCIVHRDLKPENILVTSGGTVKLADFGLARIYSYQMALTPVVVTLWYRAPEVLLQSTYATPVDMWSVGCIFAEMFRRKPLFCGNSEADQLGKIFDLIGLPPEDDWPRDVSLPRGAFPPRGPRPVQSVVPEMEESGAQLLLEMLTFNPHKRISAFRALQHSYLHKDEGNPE
T1 sequence (P24385 whole entry partner, species assumed): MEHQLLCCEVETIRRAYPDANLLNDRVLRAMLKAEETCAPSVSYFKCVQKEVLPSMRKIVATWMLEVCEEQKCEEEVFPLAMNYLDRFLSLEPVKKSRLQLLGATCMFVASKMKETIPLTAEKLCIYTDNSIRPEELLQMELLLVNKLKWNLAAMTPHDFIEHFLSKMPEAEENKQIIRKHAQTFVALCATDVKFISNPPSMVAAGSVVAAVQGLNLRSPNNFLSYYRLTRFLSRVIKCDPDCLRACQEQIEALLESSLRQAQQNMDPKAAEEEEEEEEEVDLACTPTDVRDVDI
T2 sequence (P28482 whole entry, species assumed): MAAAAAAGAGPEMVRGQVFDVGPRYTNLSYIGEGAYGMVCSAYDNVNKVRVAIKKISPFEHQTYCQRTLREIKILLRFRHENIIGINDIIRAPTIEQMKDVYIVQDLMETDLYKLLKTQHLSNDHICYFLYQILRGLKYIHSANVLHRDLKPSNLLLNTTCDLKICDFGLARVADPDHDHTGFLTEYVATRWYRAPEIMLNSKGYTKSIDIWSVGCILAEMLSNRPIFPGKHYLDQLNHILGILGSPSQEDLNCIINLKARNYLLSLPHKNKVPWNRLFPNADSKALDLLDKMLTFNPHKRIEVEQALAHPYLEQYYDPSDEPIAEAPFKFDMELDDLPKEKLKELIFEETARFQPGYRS
Insulin receptor tyrosine kinase, sequence (P06213 28-1382): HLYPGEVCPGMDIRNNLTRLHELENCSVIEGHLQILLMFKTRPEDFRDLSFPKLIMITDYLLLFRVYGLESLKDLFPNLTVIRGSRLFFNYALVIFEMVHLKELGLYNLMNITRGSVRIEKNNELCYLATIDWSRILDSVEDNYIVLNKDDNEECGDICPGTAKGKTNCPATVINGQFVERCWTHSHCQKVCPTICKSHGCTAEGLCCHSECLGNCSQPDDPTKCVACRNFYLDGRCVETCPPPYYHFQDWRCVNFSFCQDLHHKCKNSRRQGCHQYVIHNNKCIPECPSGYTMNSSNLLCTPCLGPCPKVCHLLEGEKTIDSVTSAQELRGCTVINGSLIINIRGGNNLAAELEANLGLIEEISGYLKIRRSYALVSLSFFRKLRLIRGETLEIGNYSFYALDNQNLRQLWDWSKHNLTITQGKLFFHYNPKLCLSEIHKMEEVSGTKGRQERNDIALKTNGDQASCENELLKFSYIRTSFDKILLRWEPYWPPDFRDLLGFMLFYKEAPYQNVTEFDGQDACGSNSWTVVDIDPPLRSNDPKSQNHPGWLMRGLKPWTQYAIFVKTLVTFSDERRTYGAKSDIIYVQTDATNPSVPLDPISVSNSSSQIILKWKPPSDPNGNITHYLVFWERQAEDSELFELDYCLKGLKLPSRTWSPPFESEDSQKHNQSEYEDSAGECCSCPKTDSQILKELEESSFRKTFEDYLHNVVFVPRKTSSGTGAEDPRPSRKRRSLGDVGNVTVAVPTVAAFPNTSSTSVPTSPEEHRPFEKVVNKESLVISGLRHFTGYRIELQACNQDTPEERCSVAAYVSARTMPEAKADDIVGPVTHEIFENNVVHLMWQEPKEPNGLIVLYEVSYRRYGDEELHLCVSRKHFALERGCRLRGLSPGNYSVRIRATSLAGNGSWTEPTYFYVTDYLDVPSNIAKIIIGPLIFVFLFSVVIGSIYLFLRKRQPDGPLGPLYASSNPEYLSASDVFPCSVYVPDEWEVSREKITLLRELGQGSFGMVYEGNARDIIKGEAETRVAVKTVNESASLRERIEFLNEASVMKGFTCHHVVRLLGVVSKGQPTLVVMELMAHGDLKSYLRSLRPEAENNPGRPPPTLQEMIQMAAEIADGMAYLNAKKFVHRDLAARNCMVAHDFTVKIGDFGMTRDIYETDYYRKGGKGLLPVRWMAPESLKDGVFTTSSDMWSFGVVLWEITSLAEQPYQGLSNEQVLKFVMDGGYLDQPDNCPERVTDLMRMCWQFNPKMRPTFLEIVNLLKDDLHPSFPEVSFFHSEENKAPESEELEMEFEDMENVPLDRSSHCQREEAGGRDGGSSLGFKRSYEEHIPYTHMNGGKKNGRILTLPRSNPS
T3 sequence (P27361 whole entry, species assumed): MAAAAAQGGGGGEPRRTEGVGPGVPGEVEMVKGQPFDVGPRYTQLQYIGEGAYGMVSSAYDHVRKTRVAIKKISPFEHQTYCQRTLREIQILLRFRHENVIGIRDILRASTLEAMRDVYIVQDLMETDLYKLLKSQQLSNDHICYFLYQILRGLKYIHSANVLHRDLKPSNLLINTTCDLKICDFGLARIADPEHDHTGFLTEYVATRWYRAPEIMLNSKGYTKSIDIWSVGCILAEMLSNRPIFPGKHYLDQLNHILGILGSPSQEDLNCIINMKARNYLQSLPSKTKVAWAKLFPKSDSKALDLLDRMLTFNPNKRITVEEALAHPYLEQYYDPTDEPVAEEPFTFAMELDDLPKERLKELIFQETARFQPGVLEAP
T4 sequence (P24723 whole entry): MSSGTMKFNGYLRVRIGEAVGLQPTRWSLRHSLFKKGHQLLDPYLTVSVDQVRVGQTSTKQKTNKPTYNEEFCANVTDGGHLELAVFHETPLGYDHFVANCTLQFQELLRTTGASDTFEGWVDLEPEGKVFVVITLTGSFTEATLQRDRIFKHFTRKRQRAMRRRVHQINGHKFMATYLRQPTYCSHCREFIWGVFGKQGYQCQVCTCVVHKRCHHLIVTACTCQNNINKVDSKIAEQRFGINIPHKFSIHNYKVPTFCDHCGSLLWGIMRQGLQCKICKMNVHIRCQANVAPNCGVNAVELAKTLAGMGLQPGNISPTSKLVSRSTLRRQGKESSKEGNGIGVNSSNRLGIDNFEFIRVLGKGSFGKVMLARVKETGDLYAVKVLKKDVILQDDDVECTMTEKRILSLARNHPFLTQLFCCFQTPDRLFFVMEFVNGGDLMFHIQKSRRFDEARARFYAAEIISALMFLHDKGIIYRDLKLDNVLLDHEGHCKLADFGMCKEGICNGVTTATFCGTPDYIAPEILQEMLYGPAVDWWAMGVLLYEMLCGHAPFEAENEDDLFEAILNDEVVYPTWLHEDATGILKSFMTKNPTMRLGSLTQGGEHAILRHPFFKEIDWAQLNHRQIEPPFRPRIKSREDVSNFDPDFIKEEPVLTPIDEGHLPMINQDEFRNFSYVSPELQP

SMILES: CCCCc1c(-c2ccc(O)cc2)[nH]c2nccnc12 [39 (RP107)]
- IC50 (Casein kinase 2): > 100 µM
- IC50 (Casein kinase 1): > 100 µM
- IC50 (MAPKK): > 100 µM
- IC50 (c-Jun N-terminal kinase): 3.3 to 10 µM
- IC50 (CDK4/cyclin D1): > 100 µM
- Exponential cell growth (NT2 cells [1]): reversible inhibition of exponential cell growth
- IC50 (erk2): 22 µM
- IC50 (erk1): 18 µM
- Mechanism of inhibition versus ATP, CDK1/cyclin B (CDK1/cyclin B): competitive inhibitor for ATP
- IC50 [2]: 60 µM
- IC50 (protein kinase C η): > 100 µM
- Cell cycle distribution, unsynchronised cells (NT2 cells [3]; NT2 cells, 20 μM for 40 h): accumulation in G2/M phase
- Cell cycle distribution after G2/M synchronisation by nocodazole (NT2 cells [3]; NT2 cells, 20 μM for 40 h after nocodazole withdrawal): remained in G2/M
- Cell cycle distribution after G0/G1 synchronisation by serum deprivation (NT2 cells [3]; NT2 cells, serum-enriched medium with 20 μM for 40 h): remained essentially in G0/G1
- Signs of apoptosis (NT2 cells [3]; unsynchronised NT2 cells, 20 μM for 40 h): No signs of apoptosis were detectable
